Test results published in patent US12194198B2, “High strength porous materials for controlled release” (Access Vascular, Inc., priority 2018, dated 2025).

Experiments:
A. baumannii = conditions: cited from earlier work
[1] = Chlorhexidine free base saturation in methanol; format: physicochemical; conditions: CHX/methanol solutions
Text: Solution was made with […] chlorhexidine free base (CHX) in methanol. CHX/methanol solutions appeared to reach saturation around 1000 ppm. Serial dilutions were made from the solution, where the UV-Vis would become overloaded when concentrations were above 200 ppm. In order to avoid overloading the UV-Vis, concentrations below 100 ppm were used to collect absorbance values. FIG. 8 and Table 6 show the absorbance data collected from the chlorhexidine free base standards.

P. aeruginosa = conditions: cited from earlier work

[H]/N=C(\N/C(=N/[H])NCCCCCCNC(=N)NC(=N)Nc1ccc(Cl)cc1)Nc1ccc(Cl)cc1 [chlorhexidine]
largest known minimum inhibitory concentration (MIC) (A. baumannii): 64 mg/L | saturation concentration in methanol [1]: around 1000 ppm | largest known minimum bactericidal concentration (MBC) (P. aeruginosa): 128 mg/L
